Legend:
Sperms [1] = test: Toxicity screening: cell viability by MTS assay; type: cell-based, mice; settings: for Average absorbance of cell-reduced MTS at 490 nm: average of trials 1-3; for Corrected average absorbance of cell-reduced MTS at 490 nm: culture media background subtracted
Procedure: (§1) Male BALB/c mice (12-16 week old) were euthanized by CO2-inhalation. The cauda epididymes was clipped and the upper portions of the vas deferens freed from surrounding tissue. Three-four cuts were made using scissors and forceps across the epididymes and several cuts along the length of the vas deferens. Sperm were allowed to swim out of the tissue. The dish was placed in a 5% CO2 incubator set at 37° C. for 10-15 minutes. The solution of sperm was diluted (50 μl sperm+450 μl complete medium) in Whittens/HCO3/BSA. Sperm was removed from the very top or sides of sperm drop to obtain the sperm with highest motility. The dish was then returned to the 5% CO2 incubator set at 37° C. to allow the sperm to capacitate for 1-3 hrs prior to use.
In addition, cell viability with n-propyl bromide was measured by MTS assay (Promega, Madison, Wis.). MTS [3-(4,5-dimethylthiazol-2-yl)-5-(3-carboxymethoxyphenyl)-2-(4-sulfophenyl)-2H-tetrazolium, inner salt] was utilized according to the manufacturer's instructions. The culture growth medium consisted of Whittens-HEPES complete media, (pH 7.2-7.4) prepared and supplemented with 30 mM NaHCO3 and 10 mg/mL BSA (Bovine Serum Albumin, Sigma A0281, fatty acid free). 250 mL of Whittens-Hepes complete media includes 1461 mg of NaCl, 87.6 mg of KCl, 40.8 mg of KH2PO4, 36.1 mg of MgSO4, 247.8 mg of glucose (dextrose), 22.01 mg of pyruvic acid, 130.92 mg of lactic acid (hemi-Ca), and 1191.5 mg of HEPES. After treatments of the sperms, 30 μL of MTS solution was added to each well and pipetted up and down for ten times to ensure properly mixing and incubation was prolonged for 2 h at 37° C., 5% CO2.
Absorbance observations for trials 1-3 and calculated average are expressed as optical density. The absorbance of cell-reduced MTS was read at 490 nm on a spectrophotometer Spectra Max Plus 384, and optical density for absorbance readings is provided in Table II. Absorbance is directly proportional to the number of living cells in culture. Thus, a reduction in absorbance normalized to a control indicates toxicity to a cell. Background absorbance was measured for the culture media only in three trials. An average absorbance was calculated from the three trials. The average optical density for the three trials for the culture media (background) was then subtracted from the average optical density of the various concentration assays for n-propyl bromide (expressed in terms of ppm of n-propyl bromide). Three control trials using only phosphate buffered saline were also measured. The corrected, average optical density of each of the experimental assays was then compared to the corrected, average optical density of the control (PBS only) assays. The comparison is expressed as the percentage of MTS reduction relative to the normalized absorbance of control samples.

Sperms [2] = test: Real-Time PCR Stress and Toxicity PathwayFinder RT2 Profiler array on treated sperm; type: cell-based, mice; settings: 50 ppm
Procedure: as §1
Sperms (10^4) were placed in 96-well plate in complete media and treated with n-propyl bromide (50 ppm) or phosphate buffered saline (control) and incubated for 10 minutes in a 5% CO2 incubator set at 37° C. The dish with sperm was then washed 3-times with phosphate buffered saline and returned to the 5% CO2 incubator set at 37° C. for a further 24 hours. Sperm were then collected by centrifugation and subjected to the Stress and Toxicity PathwayFinder™ RT^2 Profiler™ assay according to the manufacturer's instructions (SA Biosciences, Frederick, Md.). This PCR Array profiles the expression of 84 genes whose expression level is indicative of stress and toxicity. […] The array also includes genes representative of pathways activated by prolonged stress, which range from cell death by apoptosis or necrosis to growth arrest and senescence to proliferation and carcinogenesis.

CCCBr [n-propyl bromide, 1-bromopropane]
% of control (MTS reduction relative to PBS only control) (Sperms [1]; 0.1 ppm): 90%
Absorbance of cell-reduced MTS at 490 nm, Trial 1 (Sperms [1]; 0.1 ppm): 0.2 optical density
Absorbance of cell-reduced MTS at 490 nm, Trial 2 (Sperms [1]; 0.1 ppm): 0.1 optical density
Absorbance of cell-reduced MTS at 490 nm, Trial 3 (Sperms [1]; 0.1 ppm): 0.3 optical density
Average absorbance of cell-reduced MTS at 490 nm (Sperms [1]; 0.1 ppm): 0.2 optical density
Corrected average absorbance of cell-reduced MTS at 490 nm (Sperms [1]; 0.1 ppm): 0.0 optical density
% of control (MTS reduction relative to PBS only control) (Sperms [1]; 1 ppm): 100%
Absorbance of cell-reduced MTS at 490 nm, Trial 1 (Sperms [1]; 1 ppm): 0.2 optical density
Absorbance of cell-reduced MTS at 490 nm, Trial 2 (Sperms [1]; 1 ppm): 0.4 optical density
Absorbance of cell-reduced MTS at 490 nm, Trial 3 (Sperms [1]; 1 ppm): 0.1 optical density
Average absorbance of cell-reduced MTS at 490 nm (Sperms [1]; 1 ppm): 0.2 optical density
Corrected average absorbance of cell-reduced MTS at 490 nm (Sperms [1]; 1 ppm): 0.1 optical density
% of control (MTS reduction relative to PBS only control) (Sperms [1]; 5 ppm): 100%
Absorbance of cell-reduced MTS at 490 nm, Trial 1 (Sperms [1]; 5 ppm): 0.2 optical density
Absorbance of cell-reduced MTS at 490 nm, Trial 2 (Sperms [1]; 5 ppm): 0.3 optical density
Absorbance of cell-reduced MTS at 490 nm, Trial 3 (Sperms [1]; 5 ppm): 0.4 optical density
Average absorbance of cell-reduced MTS at 490 nm (Sperms [1]; 5 ppm): 0.3 optical density
Corrected average absorbance of cell-reduced MTS at 490 nm (Sperms [1]; 5 ppm): 0.1 optical density
% of control (MTS reduction relative to PBS only control) (Sperms [1]; 12.5 ppm): 100%
Absorbance of cell-reduced MTS at 490 nm, Trial 1 (Sperms [1]; 12.5 ppm): 0.4 optical density
Absorbance of cell-reduced MTS at 490 nm, Trial 2 (Sperms [1]; 12.5 ppm): 0.4 optical density
Absorbance of cell-reduced MTS at 490 nm, Trial 3 (Sperms [1]; 12.5 ppm): 0.1 optical density
Average absorbance of cell-reduced MTS at 490 nm (Sperms [1]; 12.5 ppm): 0.3 optical density
Corrected average absorbance of cell-reduced MTS at 490 nm (Sperms [1]; 12.5 ppm): 0.1 optical density
% of control (MTS reduction relative to PBS only control) (Sperms [1]; 25 ppm): 100%
Absorbance of cell-reduced MTS at 490 nm, Trial 1 (Sperms [1]; 25 ppm): 0.3 optical density
Absorbance of cell-reduced MTS at 490 nm, Trial 2 (Sperms [1]; 25 ppm): 0.4 optical density
Absorbance of cell-reduced MTS at 490 nm, Trial 3 (Sperms [1]; 25 ppm): 0.2 optical density
Average absorbance of cell-reduced MTS at 490 nm (Sperms [1]; 25 ppm): 0.3 optical density
Corrected average absorbance of cell-reduced MTS at 490 nm (Sperms [1]; 25 ppm): 0.1 optical density
% of control (MTS reduction relative to PBS only control) (Sperms [1]; 50 ppm): 100%
Absorbance of cell-reduced MTS at 490 nm, Trial 1 (Sperms [1]; 50 ppm): 0.2 optical density
Absorbance of cell-reduced MTS at 490 nm, Trial 2 (Sperms [1]; 50 ppm): 0.5 optical density
Absorbance of cell-reduced MTS at 490 nm, Trial 3 (Sperms [1]; 50 ppm): 0.1 optical density
Average absorbance of cell-reduced MTS at 490 nm (Sperms [1]; 50 ppm): 0.3 optical density
Corrected average absorbance of cell-reduced MTS at 490 nm (Sperms [1]; 50 ppm): 0.1 optical density
% of control (MTS reduction relative to PBS only control) (Sperms [1]; 100 ppm): 400%
Absorbance of cell-reduced MTS at 490 nm, Trial 1 (Sperms [1]; 100 ppm): 0.4 optical density
Absorbance of cell-reduced MTS at 490 nm, Trial 2 (Sperms [1]; 100 ppm): 0.6 optical density
Absorbance of cell-reduced MTS at 490 nm, Trial 3 (Sperms [1]; 100 ppm): 0.7 optical density
Average absorbance of cell-reduced MTS at 490 nm (Sperms [1]; 100 ppm): 0.6 optical density
Corrected average absorbance of cell-reduced MTS at 490 nm (Sperms [1]; 100 ppm): 0.4 optical density
% of control (MTS reduction relative to PBS only control) (Sperms [1]; 200 ppm): 600%
Absorbance of cell-reduced MTS at 490 nm, Trial 1 (Sperms [1]; 200 ppm): 0.8 optical density
Absorbance of cell-reduced MTS at 490 nm, Trial 2 (Sperms [1]; 200 ppm): 0.9 optical density
Absorbance of cell-reduced MTS at 490 nm, Trial 3 (Sperms [1]; 200 ppm): 0.7 optical density
Average absorbance of cell-reduced MTS at 490 nm (Sperms [1]; 200 ppm): 0.8 optical density
Corrected average absorbance of cell-reduced MTS at 490 nm (Sperms [1]; 200 ppm): 0.6 optical density
% of control (MTS reduction relative to PBS only control) (Sperms [1]; 600 ppm): 900%
Absorbance of cell-reduced MTS at 490 nm, Trial 1 (Sperms [1]; 600 ppm): 1.2 optical density
Absorbance of cell-reduced MTS at 490 nm, Trial 2 (Sperms [1]; 600 ppm): 1.1 optical density
Absorbance of cell-reduced MTS at 490 nm, Trial 3 (Sperms [1]; 600 ppm): 0.9 optical density
Average absorbance of cell-reduced MTS at 490 nm (Sperms [1]; 600 ppm): 1.1 optical density
Corrected average absorbance of cell-reduced MTS at 490 nm (Sperms [1]; 600 ppm): 0.9 optical density
cell toxicity (MTS assay, Table II) (Sperms [1]; at concentrations of 50 ppm or less): does not result in significant cell toxicity
cell death, necrosis, mutigencity, or DNA damage (PCR array, Table I) (Sperms [2]; a two-fold or greater change might be significant): no significant cell death, necrosis, mutigencity, or DNA damage was observed
Fold Change, gene APFA1 (Apoptotic peptidase activating factor 1) (Sperms [2]; APFA1, NM_001160, Apoptosis and Senescence, 10 minutes, washed, further 24 hours): −1.04 fold
Fold Change, gene ATM (Ataxia telangiectasia mutated) (Sperms [2]; ATM, NM_00051, Cell Cycle Control and DNA Damage Repair, 10 minutes, washed, further 24 hours): −1.01 fold
Fold Change, gene BAD (BCL2 associated agonist of cell death) (Sperms [2]; BAD, NM_004322, Apoptosis and Senescence, 10 minutes, washed, further 24 hours): −1.00 fold
Fold Change, gene BAX (BCL2 associated X protein) (Sperms [2]; BAX, NM_004324, Apoptosis and Senescence, 10 minutes, washed, further 24 hours): −1.25 fold
Fold Change, gene BCL2 (B-cell CLL/lymphoma 2) (Sperms [2]; BCL2, NM_000633, Apoptosis and Senescence, 10 minutes, washed, further 24 hours): −1.24 fold
Fold Change, gene BCL2L1 (BCL2-like 1) (Sperms [2]; BCL2L1, NM_138578, Apoptosis and Senescence, 10 minutes, washed, further 24 hours): −1.06 fold
Fold Change, gene BRCA1 (Breast cancer1, early onset) (Sperms [2]; BRCA1, NM_007294, Cell Cycle Control and DNA Damage Repair, 10 minutes, washed, further 24 hours): −1.23 fold
Fold Change, gene CASP8 (Caspase 8, apoptosis related cysteine peptidase) (Sperms [2]; CASP8, NM_001228, Apoptosis and Senescence, 10 minutes, washed, further 24 hours): −1.57 fold
Fold Change, gene CCNE1 (Cyclin E1) (Sperms [2]; CCNE1, NM_001238, Cell Cycle Control and DNA Damage Repair, 10 minutes, washed, further 24 hours): −1.06 fold
Fold Change, gene CDC25A (Cell division cycle 25, homolog A) (Sperms [2]; CDC25A, NM_001789, Cell Cycle Control and DNA Damage Repair, 10 minutes, washed, further 24 hours): −1.04 fold
Fold Change, gene CDK4 (Cyclin-dependent kinase 4) (Sperms [2]; CDK4, NM_000075, Cell Cycle Control and DNA Damage Repair, 10 minutes, washed, further 24 hours): −1.04 fold
Fold Change, gene CDKN2A (Cyclin dependent kinase inhibitor 2A) (Sperms [2]; CDKN2A, NM_000077, Cell Cycle Control and DNA Damage Repair, 10 minutes, washed, further 24 hours): −1.05 fold
Fold Change, gene CDKNA1 (Cyclin dependent kinase inhibitor 1A) (Sperms [2]; CDKNA1, NM_000389, Cell Cycle Control and DNA Damage Repair, 10 minutes, washed, further 24 hours): −1.25 fold
Fold Change, gene CFLAR (CASP8 & FADD like apoptosis regulator) (Sperms [2]; CFLAR, NM_003879, Apoptosis and Senescence, 10 minutes, washed, further 24 hours): −1.11 fold
Fold Change, gene CHEK2 (CHk2, Checkpoint homolog) (Sperms [2]; CHEK2, NM_007194, Cell Cycle Control and DNA Damage Repair, 10 minutes, washed, further 24 hours): −1.02 fold
Fold Change, gene E2F1 (E2F transcription factor 1) (Sperms [2]; E2F1, NM_005225, Cell Cycle Control and DNA Damage Repair, 10 minutes, washed, further 24 hours): −1.17 fold
Fold Change, gene GZMA (Granzyme A) (Sperms [2]; GZMA, NM_006144, Apoptosis and Senescence, 10 minutes, washed, further 24 hours): −1.26 fold
Fold Change, gene HTATIP2 (HIV-1 tat interactive protein 2) (Sperms [2]; HTATIP2, NM_006410, Apoptosis and Senescence, 10 minutes, washed, further 24 hours): −1.38 fold
Fold Change, gene MDM2 (MDM2 p53 binding protein homolog) (Sperms [2]; MDM2, NM_002392, Cell Cycle Control and DNA Damage Repair, 10 minutes, washed, further 24 hours): −1.32 fold
Fold Change, gene RB1 (Retinoblastoma 1) (Sperms [2]; RB1, NM_000321, Cell Cycle Control and DNA Damage Repair, 10 minutes, washed, further 24 hours): −1.30 fold
Fold Change, gene S100A4 (S100 calcium binding protein A4) (Sperms [2]; S100A4, NM_002961, Cell Cycle Control and DNA Damage Repair, 10 minutes, washed, further 24 hours): −1.15 fold
Fold Change, gene TERT (Telomerase reverse transcriptase) (Sperms [2]; TERT, NM_198253, Apoptosis and Senescence, 10 minutes, washed, further 24 hours): −1.16 fold
Fold Change, gene TNFRS1A (Tumor necrosis factor receptor super family member 1A) (Sperms [2]; TNFRS1A, NM_001065, Apoptosis and Senescence, 10 minutes, washed, further 24 hours): −1.36 fold
Fold Change, gene TNFRSF10B (Tumor necrosis factor receptor super family member 10b) (Sperms [2]; TNFRSF10B, NM_003842, Apoptosis and Senescence, 10 minutes, washed, further 24 hours): −1.33 fold
Fold Change, gene TNFRSF25 (Tumor necrosis factor receptor super family member 25) (Sperms [2]; TNFRSF25, NM_003790, Apoptosis and Senescence, 10 minutes, washed, further 24 hours): −1.15 fold
Fold Change, gene TP53 (Tumor protein p53) (Sperms [2]; TP53, NM_000546, Cell Cycle Control and DNA Damage Repair, 10 minutes, washed, further 24 hours): −1.06 fold

From patent US20140329912A1, “CONTRACEPTIVE COMPOSITIONS AND METHODS OF CONTRACEPTION” (INTEGRITY PHARMACEUTICALS, LLC, priority 2011, published 2014)
